# In patent US4250259A, “Microbiological production of ketones from C3 -C6 secondary alcohols” (priority 1979, dated 1981):
# Columns and labels:
# [1] = test system: cell suspensions of C1-utilizers; assay: studies on production of 2-butanone from 2-butanol by cell suspensions of the strains tested; format: cell-based; conditions: cell suspensions
# Excerpt: The following summarizes tests conducted on the optimal conditions for the production of methyl ketones from C3 -C6 sec. alcohols.
# The substrate specificity for the oxidation of C3 -C6 secondary alcohols by the strains of C1 -utilizers was studied.
# [2] = test system: cell extracts (NAD+-dependent secondary alcohol dehydrogenase); assay: sec-alcohols to methyl ketones by cell extracts of yeasts, gas chromatography; format: biochemical, Torulopsis sp. strain A1 NRRL-Y-11,419; conditions: grown on methanol
# [3] = test system: secondary alcohol dehydrogenase (SADH), cell-free soluble extract; assay: oxidation of sec-alcohols by cell-free soluble extracts; format: biochemical, Methylococcus capsulatus CRL M1 (NRRL B-11,219); conditions: soluble crude extract; grown on methanol
# Procedure: (§1) To prepare the cell-free secondary alcohol dehydrogenase (SADH) system, the washed cells were disrupted with a Wave Energy Ultrasonic Oscillator, Model W201 (Wave Energy System, Inc., Newtown, Pa.) and centrifuged at 20,000×g. for 30 minutes. […] The enzyme activity was measured with a fluorescence spectrophotometer (Perkin Elmer, Model MPF 44A) by following the formation of reduced NAD (EX 340 nm, Em 460 nm). The formation of reduced NAD was also followed with an absorption spectrophotometer at 340 nm. The assay system (3 ml.) contained: potassium phosphate buffer pH 7.0; 150 μmol.; NAD 1 μmol.; a given amount of enzyme preparation; and secondary alcohol 10 μmol. The reaction was started by the addition of substrate. One unit of enzyme activity represents the reduction of one μmole NAD per minute. Protein concentrations were determined by the Lowry method (J. Biol. Chem., 193: 255-275 (1951)).
# (§2) The experimental procedure for the tests reported in Table VIII were as follows: 1 mg protein of crude extract was added into a 0.5 ml. 0.05 M phosphate buffer (pH 7.0) in a 10-ml. vial. […] The reaction mixture was incubated at 30° C. on a water bath. A 3 μl sample was removed with a syringe at 15 min. of incubation and was assayed with g.l.c. Catalytic activity was also assayed by fluorescence spectrophotometry.
# [4] = test system: Kloeckera sp. Strain A2 (NRRLY-11,420); assay: sec-alcohols to ketones by cell suspensions of yeasts; format: cell-based
# [5] = test system: Pseudomonas sp. ATCC 21438 (Facultative); assay: sec-alcohols to ketones by resting cell suspensions; format: cell-based
# Procedure: (§3) The pH of the nutrient medium was adjusted to 7.0 by the addition of acid or base and 50 ml. samples of the nutrient medium were charged into a plurality of 300 ml. shaker flasks. The shaker flasks were inoculated with an inoculating loop of cells from an agar plate containing homogeneous colonies of the microorganisms on the plate (the purity of the isolates was confirmed by microscopic examination). The isolates had been maintained on methanol (0.4% V/V) agar plates or on agar plates under an atmosphere of methane and air having a 1:1 V/V gas ratio which had been transferred every two weeks. For growth on methanol, the medium was supplemented with 0.4% methanol. For growth on methane, the gaseous phase of the inoculated flasks was replaced with a gas mixture comprised of methane and air having a ratio of 1:1 on a V/V basis. The inoculated flasks were sealed air-tight and were incubated on a rotary shaker of orbital radius 2.5 cm. at 250 rpm and at 30° C. for two days until turbidity in the medium had developed. The cells were harvested by centrifugation at 10,000×g. at 4° C. for 30 minutes. The cell pellet was washed twice with a 0.05 M phosphate buffer at a pH of 7.0 (containing 0.02 M MgCl2). The washed cells were then suspended in a 0.05 M phosphate buffer at pH 7.0.
# (§4) A 0.5 ml. sample of each washed cell suspension (2 mg. cells) was put into 10 ml. vials at 4° C. which were sealed with a rubber cap. The gaseous phase of the vials was removed with vacuum and then was replaced with a gas mixture of the substrate reactant (i.e., alkane or secondary alcohol) and oxygen at a 1:1 V/V ratio. (In the case of a liquid substrate, i.e., secondary alcohol, 10 μl of the substrate was put in the 10 ml. vials). […] Samples of product (1-3 μl) were withdrawn periodically with a microsyringe and the products were analyzed by gas chromatography (ionization flame detector column).
# (§5) The procedure in Example 1 was repeated except that a plurality of methanol-utilizing methylotrophic microorganisms were each aerobically grown in a methanol-containing nutrient medium instead of a methane-containing medium. The nutrients in the medium were the same as indicated in Example 1 except that 0.4% V/V methanol was used as the alcohol dehydrogenase inducer and as the major carbon and energy source for growth. The cells were harvested and washed as described in Example 1. The resting microbial cells of the induced methanol-grown methanol-utilizing methylotrophic microorganisms were then contacted with C3 -C6 secondary alcohols in a buffered solution by the procedure of Example 1.
# (§6) The procedure in Example 1 was repeated except that the methylotrophic microorganisms were each aerobically grown in an alcohol dehydrogenase-inducing growth medium containing methylamine or methyl formate as the alcohol dehydrogenase enzyme inducer and growth substrate instead of methane. The nutrients in the medium were the same as indicated in Example 1 except that 0.4% V/V of the alcohol dehydrogenase-inducer growth substrate was used as the major carbon and energy source. The cells were harvested and washed as described in Example 1. The resting microbial cells were then contacted with C3 -C6 secondary alcohols in a buffered solution by the conversion procedure of Example 1.
# [6] = test system: Methanomonas methylovora ATCC 21852 (Obligate); assay: as above; format: cell-based
# Procedure: as §3, §4, §5, §6
# [7] = test system: secondary alcohol dehydrogenase (SADH), cell-free soluble extract; assay: oxidation of sec-alcohols by cell-free soluble extracts; format: biochemical, Methylosinus trichosporium OB3b (NRRL B-11,196); conditions: soluble crude extract; grown on methanol
# Procedure: as §1, §2
# [8] = test system: Torulopsis sp. Strain A1 (NRRLY-11,419); assay: sec-alcohols to ketones by cell suspensions of yeasts; format: cell-based
# [9] = test system: cell extracts (NAD+-dependent secondary alcohol dehydrogenase); assay: sec-alcohols to methyl ketones by cell extracts of yeasts, gas chromatography; format: biochemical, Kloeckera sp. strain A2 NRRL-Y-11,420; conditions: grown on methanol
# [10] = test system: Hansenula polymorpha ATCC 26012; assay: sec-alcohols to ketones by cell suspensions of yeasts; format: cell-based
Structure (SMILES),rate of oxidation of secondary alcohols by strains of C1-utilizers [1],"Conversion Rate, sec-alcohol to methyl ketone [2]","Oxidation Rate, sec-alcohol to corresponding ketone [3]","Conversion Rate, sec-alcohol to corresponding ketone ([4]; Growth Substrate Ethanol)","Conversion Rate, sec-alcohol to corresponding ketone ([4]; Growth Substrate Methanol)","Conversion Rate, sec-alcohol to corresponding ketone ([4]; Growth Substrate Methylamine)","Conversion Rate, sec-alcohol to corresponding ketone ([4]; Growth Substrate Methylformate)","Conversion Rate, sec-alcohol to corresponding ketone ([4]; Growth Substrate Propylamine)","Conversion Rates, sec-alcohol to corresponding ketone ([5]; methanol-grown cells)","Conversion Rates, sec-alcohol to corresponding ketone ([5]; methyl formate-grown cells)","Conversion Rates, sec-alcohol to corresponding ketone ([5]; methylamine-grown cells)","Conversion Rates, sec-alcohol to corresponding ketone ([6]; methanol-grown cells)","Conversion Rates, sec-alcohol to corresponding ketone ([6]; methyl formate-grown cells)","Conversion Rates, sec-alcohol to corresponding ketone ([6]; methylamine-grown cells)","Oxidation Rate, sec-alcohol to corresponding ketone [7]","Conversion Rate, sec-alcohol to corresponding ketone ([8]; Growth Substrate Ethanol)","Conversion Rate, sec-alcohol to corresponding ketone ([8]; Growth Substrate Methanol)","Conversion Rate, sec-alcohol to corresponding ketone ([8]; Growth Substrate Methylamine)","Conversion Rate, sec-alcohol to corresponding ketone ([8]; Growth Substrate Methylformate)","Conversion Rate, sec-alcohol to corresponding ketone ([8]; Growth Substrate Propylamine)",further results
"CCCC(C)O (stereo not shown) [2-Pentanol, 2-pentanol]",much slower rate,1.0 μmoles/hr/mg Protein,0.1 nmole/min/mg protein,1.0 μmoles/hr/mg of protein,1.2 μmoles/hr/mg of protein,1.0 μmoles/hr/mg of protein,1.2 μmoles/hr/mg of protein,0.92 μmoles/hr/mg of protein,2.7 μmoles/hr/mg protein,2.0 μmoles/hr/mg protein,0.82 μmoles/hr/mg protein,2.1 μmoles/hr/mg protein,1.5 μmoles/hr/mg protein,1.0 μmoles/hr/mg protein,0.1 nmole/min/mg protein,1.2 μmoles/hr/mg of protein,1.0 μmoles/hr/mg of protein,0.9 μmoles/hr/mg of protein,1.1 μmoles/hr/mg of protein,0.62 μmoles/hr/mg of protein,"Conversion Rate, sec-alcohol to methyl ketone [9]: 1.2 μmoles/hr/mg Protein; Conversion Rate, sec-alcohol to corresponding ketone ([10]; Growth Substrate Ethanol): 1.1 μmoles/hr/mg of protein; Conversion Rate, sec-alcohol to corresponding ketone ([10]; Growth Substrate Methanol): 1.4 μmoles/hr/mg of protein; Conversion Rate, sec-alcohol to corresponding ketone ([10]; Growth Substrate Methylamine): 1.2 μmoles/hr/mg of protein; Conversion Rate, sec-alcohol to corresponding ketone ([10]; Growth Substrate Methylformate): 1.3 μmoles/hr/mg of protein; Conversion Rate, sec-alcohol to corresponding ketone ([10]; Growth Substrate Propylamine): 0.82 μmoles/hr/mg of protein"
"CC(C)O [2-Propanol, 2-propanol]",higher rates,4.5 μmoles/hr/mg Protein,1.7 nmole/min/mg protein,4.5 μmoles/hr/mg of protein,4.8 μmoles/hr/mg of protein,4.0 μmoles/hr/mg of protein,4.9 μmoles/hr/mg of protein,4.0 μmoles/hr/mg of protein,0.45 μmoles/hr/mg protein,0.52 μmoles/hr/mg protein,1.0 μmoles/hr/mg protein,0.28 μmoles/hr/mg protein,0.62 μmoles/hr/mg protein,0.82 μmoles/hr/mg protein,2.0 nmole/min/mg protein,4.2 μmoles/hr/mg of protein,4.5 μmoles/hr/mg of protein,4.3 μmoles/hr/mg of protein,4.5 μmoles/hr/mg of protein,3.2 μmoles/hr/mg of protein,"Conversion Rate, sec-alcohol to methyl ketone [9]: 4.8 μmoles/hr/mg Protein; Conversion Rate, sec-alcohol to corresponding ketone ([10]; Growth Substrate Ethanol): 5.0 μmoles/hr/mg of protein; Conversion Rate, sec-alcohol to corresponding ketone ([10]; Growth Substrate Methanol): 5.9 μmoles/hr/mg of protein; Conversion Rate, sec-alcohol to corresponding ketone ([10]; Growth Substrate Methylamine): 5.2 μmoles/hr/mg of protein; Conversion Rate, sec-alcohol to corresponding ketone ([10]; Growth Substrate Methylformate): 5.6 μmoles/hr/mg of protein; Conversion Rate, sec-alcohol to corresponding ketone ([10]; Growth Substrate Propylamine): 4.1 μmoles/hr/mg of protein"
